System: TRZAX Triticum aestivum (Soft wheat)
Experiment: Ipfencarbazone biostimulant effect, early post emergence foliar application, greenhouse pots, plant height: wheat
Format: in vivo
From the text: The original objective of this Example was to evaluate the herbicidal effect of ipfencarbazone when applied as a post emergent treatment to a range of selected crops and weeds. Unexpectedly, crop plant growth stimulation was observed. The actual species of weeds and crops are listed in the summary data tabulated below and in FIGS. 1-13. By convention each plant species has a Bayer code (5-letter name) with the scientific name for the plant referenced in FIGS. 1-13. In each Figure, each tray contains the same configuration of weeds and/or crops. In each Figure there is one replication of each treatment (six treatments in total). The top three photographs in each Figure show the Bayer Codes and bottom three photographs are aligned with the top three facilitating viewing of the same plant species. Throughout the Examples various abbreviations as conventional shorthand notation and will be appreciated by those skilled in the art. Some exemplary abbreviations include, “CV”=Co-efficient of Variation,” “LSD”=Least Significant Difference” (G/L (gram per L) AND GA/L (gram of active ingredient per L); “SC”=suspension concentrate formulation. The diluent in all treatments was water. By convention factors that are identical in all treatments (e.g. diluent and surfactant) are not listed in each treatment.
Methods: The indicated size pots (see Tables below) are filled with a specific soil, the soil properties being indicated below. The referenced crops and weeds are planted by hand in each pot. […] The experiments include six treatments each replicated three times on each crop/weed species. At a specific time after emergence each crop and weed species was treated with ipfencarbazone plus a non-ionic surfactant (NIS). In the present Example, the surfactant employed was ENERGIC™ (non-ionic surfactant). The application timing is indicated in each of the Tables (1 or 2 leaf stage) below. Ipfencarbazone plus surfactant was diluted in water and applied at a rate equivalent to about 250 L/ha. Ipfencarbazone was applied using a track sprayer. After treatment, the pots were randomized in a greenhouse. At each assessment (indicated by “days after treatment” or DAT) the height of each plant was measured. The letters next to each mean indicate the level of statistical significance.
Replications: 3, Untreated treatments: 1, Design: Randomized Complete Block (RCB), Treatment units: Treated ‘Plot’ experimental unit size, Dry Form. Unit: %, Treated ‘Plot’ experimental unit size Width: 1 meter, Treated ‘Plot’ experimental unit size Length: 1.4 meters, Application volume: 250 L/ha, Mix size: 0.15 liters, […]

[1] = TRZAX BRS327, 125 g ai/ha, 28 DA-A
[2] = TRZAX BRS327, 250 g ai/ha, 15 DA-A
[3] = TRZAX BRS327, 250 g ai/ha, 28 DA-A
[4] = TRZAX BRS327, 500 g ai/ha, 15 DA-A
[5] = TRZAX BRS327, 500 g ai/ha, 28 DA-A
[6] = TRZAX BRS327, 1000 g ai/ha, 15 DA-A
[7] = TRZAX BRS327, 1000 g ai/ha, 28 DA-A
[8] = TRZAX Iguaçú, 62.5 g ai/ha, 15 DA-A
[9] = TRZAX Iguaçú, 62.5 g ai/ha, 28 DA-A
[10] = TRZAX Iguaçú, 125 g ai/ha, 15 DA-A
[11] = TRZAX Iguaçú, 125 g ai/ha, 28 DA-A
[12] = TRZAX Iguaçú, 250 g ai/ha, 15 DA-A
[13] = TRZAX Iguaçú, 250 g ai/ha, 28 DA-A
[14] = TRZAX Iguaçú, 500 g ai/ha, 15 DA-A
[15] = TRZAX Iguaçú, 500 g ai/ha, 28 DA-A
[16] = TRZAX Iguaçú, 1000 g ai/ha, 15 DA-A
[17] = TRZAX Iguaçú, 1000 g ai/ha, 28 DA-A
[18] = TRZAX Itaipú, 62.5 g ai/ha, 15 DA-A
[19] = TRZAX Itaipú, 62.5 g ai/ha, 28 DA-A
[20] = TRZAX Itaipú, 125 g ai/ha, 15 DA-A
[21] = TRZAX Itaipú, 125 g ai/ha, 28 DA-A
[22] = TRZAX Itaipú, 250 g ai/ha, 15 DA-A
[23] = TRZAX Itaipú, 250 g ai/ha, 28 DA-A
[24] = TRZAX Itaipú, 500 g ai/ha, 15 DA-A
[25] = TRZAX Itaipú, 500 g ai/ha, 28 DA-A
[26] = TRZAX Itaipú, 1000 g ai/ha, 15 DA-A
[27] = TRZAX Itaipú, 1000 g ai/ha, 28 DA-A

Compound: CC(C)N(C(=O)n1cnn(-c2ccc(Cl)cc2Cl)c1=O)c1ccc(F)cc1F [ARY-0572-001, ipfencarbazone]
- HEIGHT, treatment mean (TRZAX BRS327, 125 g ai/ha, 15 DA-A): 27.6 a cm
- HEIGHT, percent of untreated check (APoC) [1]: (156.7%)
- HEIGHT, treatment mean [1]: 35.0 a cm
- HEIGHT, percent of untreated check (APoC) [2]: (171.4%)
- HEIGHT, treatment mean [2]: 32.0 a cm
- HEIGHT, percent of untreated check (APoC) [3]: (204.0%)
- HEIGHT, treatment mean [3]: 45.6 a cm
- HEIGHT, percent of untreated check (APoC) [4]: (130.7%)
- HEIGHT, treatment mean [4]: 24.4 a cm
- HEIGHT, percent of untreated check (APoC) [5]: (141.3%)
- HEIGHT, treatment mean [5]: 31.6 a cm
- HEIGHT, percent of untreated check (APoC) [6]: (92.9%)
- HEIGHT, treatment mean [6]: 17.3 a cm
- HEIGHT, percent of untreated check (APoC) [7]: (126.4%)
- HEIGHT, treatment mean [7]: 28.2 a cm
- HEIGHT, percent of untreated check (APoC) [8]: (158.8%)
- HEIGHT, treatment mean [8]: 24.6 a cm
- HEIGHT, percent of untreated check (APoC) [9]: (129.6%)
- HEIGHT, treatment mean [9]: 29.2 bc cm
- HEIGHT, percent of untreated check (APoC) [10]: (168.5%)
- HEIGHT, treatment mean [10]: 26.1 a cm
- HEIGHT, percent of untreated check (APoC) [11]: (133.5%)
- HEIGHT, treatment mean [11]: 30.1 be cm
- HEIGHT, percent of untreated check (APoC) [12]: (193.2%)
- HEIGHT, treatment mean [12]: 29.9 a cm
- HEIGHT, percent of untreated check (APoC) [13]: (192.1%)
- HEIGHT, treatment mean [13]: 43.3 a cm
- HEIGHT, percent of untreated check (APoC) [14]: (153.4%)
- HEIGHT, treatment mean [14]: 23.8 ab cm
- HEIGHT, percent of untreated check (APoC) [15]: (163.1%)
- HEIGHT, treatment mean [15]: 36.8 ab cm
- HEIGHT, percent of untreated check (APoC) [16]: (105.4%)
- HEIGHT, treatment mean [16]: 16.3 bc cm
- HEIGHT, percent of untreated check (APoC) [17]: (82.8%)
- HEIGHT, treatment mean [17]: 18.7 c cm
- HEIGHT, percent of untreated check (APoC) [18]: (169.2%)
- HEIGHT, treatment mean [18]: 23.8 abc cm
- HEIGHT, percent of untreated check (APoC) [19]: (154.6%)
- HEIGHT, treatment mean [19]: 37.1 a cm
- HEIGHT, percent of untreated check (APoC) [20]: (181.4%)
- HEIGHT, treatment mean [20]: 25.5 ab cm
- HEIGHT, percent of untreated check (APoC) [21]: (134.7%)
- HEIGHT, treatment mean [21]: 32.3 a cm
- HEIGHT, percent of untreated check (APoC) [22]: (223.7%)
- HEIGHT, treatment mean [22]: 31.4 a cm
- HEIGHT, percent of untreated check (APoC) [23]: (199.1%)
- HEIGHT, treatment mean [23]: 47.8 a cm
- HEIGHT, percent of untreated check (APoC) [24]: (157.7%)
- HEIGHT, treatment mean [24]: 22.2 abc cm
- HEIGHT, percent of untreated check (APoC) [25]: (100.0%)
- HEIGHT, treatment mean [25]: 24.0 a cm
- HEIGHT, percent of untreated check (APoC) [26]: (111.5%)
- HEIGHT, treatment mean [26]: 15.7 bc cm
- HEIGHT, percent of untreated check (APoC) [27]: (76.9%)
- HEIGHT, treatment mean [27]: 18.4 a cm

— patent US20170318812A1, “Plant and Crop Growth Regulating/Biostimulant Formulations and Methods of Use” (Arysta Lifescience North America, LLC, priority 2014, published 2017)
